Measured values as given in patent publication US20080234318A1, “Chemical Compounds” (priority 2005, published 2008).

These molecules were tested on HIV-1 (assay: HOS HIV-1 infectivity assay). Conditions: Human immunodeficiency virus 1, BAL / IIIB, HOS cells expressing hCXCR4/hCCR5/hCD4/pHIV-LTR-luciferase, virus strain (Ba-L or IIIB) not given, read-out: Activity Level.
Type: cell-based
Method: Compounds were profiled against two HIV-1 viruses, the M-tropic (CCR5 utilizing) Ba-L strain and the T-tropic (CXCR4 utilizing) IIIB strain. Both viruses were propagated in human peripheral blood lymphocytes. Compounds were tested for there ability to block infection of the HOS cell line (expressing hCXCR4/hCCR5/hCD4/pHIV-LTR-luciferase) by either HIV-1 Ba-L or HIV-1 IIIB. Compound cytotoxicity was also examined in the absence of virus addition.
HOS cells (expressing hCXCR4/hCCR5/hCD4/pHIV-LTR-luciferase) were harvested and diluted in Dulbeccos modified Eagles media supplemented with 2% FCS and non-essential amino acid to a concentration of 60,000 cells/ml. The cells were plated into 96-well plates (100 ul per well) and the plates were placed in a tissue culture incubator (37° C.; 5% CO2/95% air) for a period of 24h.
Subsequently, 50 ul of the desired drug solution (4 times the final concentration) was added to each well and the plates were returned to the tissue culture incubator (37° C.; 5% CO2/95% air) for 1h. Following this incubation 50 ul of diluted virus was added to each well (approximately 2 million RLU per well of virus). The plates were returned to the tissue culture incubator (37° C.; 5% CO2/95% air) and were incubated for a further 96h.
Following this incubation the endpoint for the virally infected cultures was quantified following addition of Steady-Glo Luciferase assay system reagent (Promega, Madison, Wis.). Cell viability or non-infected cultures was measured using a CellTiter-Glo luminescent cell viability assay system (Promega, Madison, Wis.). All luminescent readouts are performed on a Topcount luminescence detector (Packard, Meridien, Conn.).

| SMILES | IC50 |
| --- | --- |
| CN1CCN(c2cccc3nc(CN(C)[C@H]4CCCc5cccnc54)c(CNC(=O)Nc4ccccc4)n23)CC1 [Example 41, N-{[5-(4-Methyl-1-piperazinyl)-2-({methyl[(8S)-5,6,7,8-tetrahydro-8-quinolinyl]amino}methyl)imidazo[1,2-a]pyridin-3-yl]methyl}-N′-phenylurea] | < 100 nM |
| CC(C)NC(=O)NCc1c(CN(C)[C@H]2CCCc3cccnc32)nc2cccc(N3CCN(C)CC3)n12 [Example 40, N-(1-Methylethyl)-N′-{[5-(4-methyl-1-piperazinyl)-2-({methyl[(8S)-5,6,7,8-tetrahydro-8-quinolinyl]amino}methyl)imidazo[1,2-a]pyridin-3-yl]methyl}urea] | < 100 nM |
| CN1CCN(c2cccc3nc(CN(C)[C@H]4CCCc5cccnc54)c(CNS(=O)(=O)c4ccccc4)n23)CC1 [Example 37, N-{[5-(4-Methyl-1-piperazinyl)-2-({methyl[(8S)-5,6,7,8-tetrahydro-8-quinolinyl]amino}methyl)imidazo[1,2-a]pyridin-3-yl]methyl}benzenesulfonamide] | < 100 nM |
| CN1CCN(c2cccc3nc(CN(C)[C@H]4CCCc5cccnc54)c(CN(CCO)CCO)n23)CC1 [Example 13, 2,2′-({[5-(4-Methyl-1-piperazinyl)-2-({methyl[(8S)-5,6,7,8-tetrahydro-8-quinolinyl]amino}methyl)imidazo[1,2-a]pyridin-3-yl]methyl}imino)diethanol] | < 100 nM |
| CN1CCN(c2cccc3nc(CN(C)[C@H]4CCCc5cccnc54)c(CNS(C)(=O)=O)n23)CC1 [Example 34, N-{[5-(4-Methyl-1-piperazinyl)-2-({methyl[(8S)-5,6,7,8-tetrahydro-8-quinolinyl]amino}methyl)imidazo[1,2-a]pyridine-3-yl]methyl}methanesulfonamide] | < 100 nM |
| CN1CCN(c2cccc3nc(CN(C)[C@H]4CCCc5cccnc54)c(CN4CCOCC4)n23)CC1 [Example 16, (8S)—N-Methyl-N-{[5-(4-methyl-1-piperazinyl)-3-(4-morpholinylmethyl)imidazo[1,2-a]pyridin-2-yl]methyl}-5,6,7,8-tetrahydro-8-quinolinamine] | < 100 nM |
| CN1CCN(Cc2c(CN(C)[C@H]3CCCc4cccnc43)nc3cccc(N4CCN(C)CC4)n23)CC1 [Example 21, (8S)—N-Methyl-N-({5-(4-methyl-1-piperazinyl)-3-[(4-methyl-1-piperazinyl)methyl]imidazo[1,2-a]pyridin-2-yl}methyl)-5,6,7,8-tetrahydro-8-quinolinamine] | < 100 nM |
| CN1CCN(c2cccc3nc(CN(C)[C@H]4CCCc5cccnc54)c(CN4CCC(O)C4)n23)CC1 (stereo partly drawn) [Example 15, 1-{[5-(4-Methyl-1-piperazinyl)-2-({methyl[(8S)-5,6,7,8-tetrahydro-8-quinolinyl]amino}methyl)imidazo[1,2-a]pyridin-3-yl]methyl}-3-pyrrolidinol] | < 100 nM |
| CCN(CC)Cc1c(CN(C)[C@H]2CCCc3cccnc32)nc2cccc(N3CCN(C)CC3)n12 [Example 11, (8S)—N-{[3-[(Diethylamino)methyl]-5-(4-methyl-1-piperazinyl)imidazo[1,2-a]pyridin-2-yl]methyl}-N-methyl-5,6,7,8-tetrahydro-8-quinolinamine] | < 100 nM |
| COC(=O)NCc1c(CN(C)[C@H]2CCCc3cccnc32)nc2cccc(N3CCN(C)CC3)n12 [Example 31, Methyl {[5-(4-methyl-1-piperazinyl)-2-({methyl[(8S)-5,6,7,8-tetrahydro-8-quinolinyl]amino}methyl)imidazo[1,2-a]pyridin-3-yl]methyl}carbamate] | < 100 nM |
| CC(C)C(=O)NCc1c(CN(C)[C@H]2CCCc3cccnc32)nc2cccc(N3CCN(C)CC3)n12 [Example 27, 2-Methyl-N-{[5-(4-methyl-1-piperazinyl)-2-({methyl[(8S)-5,6,7,8-tetrahydro-8-quinolinyl]amino}methyl)imidazo[1,2-a]pyridine-3-yl]methyl}propanamide] | < 100 nM |
| CC(C)NCc1c(CN(C)[C@H]2CCCc3cccnc32)nc2cccc(N3CCN(C)CC3)n12 [Example 23, (8S)—N-Methyl-N-{[3-{[(1-methylethyl)amino]methyl}-5-(4-methyl-1-piperazinyl)imidazo[1,2-a]pyridin-2-yl]methyl}-5,6,7,8-tetrahydro-8-quinolinamine] | < 100 nM |
| CN1CCN(c2cccc3nc(CN(C)[C@H]4CCCc5cccnc54)c(CNC(=O)c4ccccc4)n23)CC1 [Example 29, 2 N-{[5-(4-Methyl-1-piperazinyl)-2-({methyl[(8S)-5,6,7,8-tetrahydro-8-quinolinyl]amino}methyl)imidazo[1,2-a]pyridin-3-yl]methyl}benzamide] | < 100 nM |
| CN(C)Cc1c(CN(C)[C@H]2CCCc3cccnc32)nc2cccc(N3CCN(C)CC3)n12 [Example 10, (8S)—N-{[3-[(Dimethylamino)methyl]-5-(4-methyl-1-piperazinyl)imidazo[1,2-a]pyridin-2-yl]methyl}-N-methyl-5,6,7,8-tetrahydro-8-quinolinamine] | < 100 nM |
| CCN(CCO)Cc1c(CN(C)[C@H]2CCCc3cccnc32)nc2cccc(N3CCN(C)CC3)n12 [Example 14, 2-(Ethyl{[5-(4-methyl-1-piperazinyl)-2-({methyl[(8S)-5,6,7,8-tetrahydro-8-quinolinyl]amino}methyl)imidazo[1,2-a]pyridin-3-yl]methyl}amino)ethanol] | < 100 nM |
| CN1CCN(c2cccc3nc(CN(C)[C@H]4CCCc5cccnc54)c(CNC(=O)Nc4ccc(N(C)C)cc4)n23)CC1 [Example 42, N-[4-(Dimethylamino)phenyl]-N′-{[5-(4-methyl-1-piperazinyl)-2-({methyl[(8S)-5,6,7,8-tetrahydro-8-quinolinyl]amino}methyl)imidazo[1,2-a]pyridin-3-yl]methyl}urea] | < 100 nM |
| CN1CCN(c2cccc3nc(CN(C)[C@H]4CCCc5cccnc54)c(CNC(=O)Cc4ccccc4)n23)CC1 [Example 30, N-{[5-(4-Methyl-1-piperazinyl)-2-({methyl[(8S)-5,6,7,8-tetrahydro-8-quinolinyl]amino}methyl)imidazo[1,2-a]pyridin-3-yl]methyl}-2-phenylacetamide] | < 100 nM |
| CCS(=O)(=O)NCc1c(CN(C)[C@H]2CCCc3cccnc32)nc2cccc(N3CCN(C)CC3)n12 [Example 35, N-{[5-(4-Methyl-1-piperazinyl)-2-({methyl[(8S)-5,6,7,8-tetrahydro-8-quinolinyl]amino}methyl)imidazo[1,2-a]pyridin-3-yl]methyl}ethanesulfonamide] | < 100 nM |
| CCC(=O)NCc1c(CN(C)[C@H]2CCCc3cccnc32)nc2cccc(N3CCN(C)CC3)n12 [Example 26, N-{[5-(4-Methyl-1-piperazinyl)-2-({methyl[(8S)-5,6,7,8-tetrahydro-8-quinolinyl]amino}methyl)imidazo[1,2-a]pyridin-3-yl]methyl}propanamide] | < 100 nM |
| CCOC(=O)NCc1c(CN(C)[C@H]2CCCc3cccnc32)nc2cccc(N3CCN(C)CC3)n12 [Example 32, Ethyl {[5-(4-methyl-1-piperazinyl)-2-({methyl[(8S)-5,6,7,8-tetrahydro-8-quinolinyl]amino}methyl)imidazo[1,2-a]pyridin-3-yl]methyl}carbamate] | < 100 nM |
| CC(=O)NCc1c(CN(C)[C@H]2CCCc3cccnc32)nc2cccc(N3CCN(C)CC3)n12 [Example 25, N-{[5-(4-Methyl-1-piperazinyl)-2-({methyl[(8S)-5,6,7,8-tetrahydro-8-quinolinyl]amino}methyl)imidazo[1,2-a]pyridin-3-yl]methyl}acetamide] | < 100 nM |
| CCC(C)C(=O)NCc1c(CN(C)[C@H]2CCCc3cccnc32)nc2cccc(N3CCN(C)CC3)n12 (stereo partly drawn) [Example 28, 2-Methyl-N-{[5-(4-methyl-1-piperazinyl)-2-({methyl[(8S)-5,6,7,8-tetrahydro-8-quinolinyl]amino}methyl)imidazo[1,2-a]pyridin-3-yl]methyl}butanamide] | < 100 nM |
| CN1CCN(c2cccc3nc(CN(C)[C@H]4CCCc5cccnc54)c(CNS(=O)(=O)Cc4ccccc4)n23)CC1 [Example 38, N-{[5-(4-Methyl-1-piperazinyl)-2-({methyl[(8S)-5,6,7,8-tetrahydro-8-quinolinyl]amino}methyl)imidazo[1,2-a]pyridin-3-yl]methyl}-1-phenylmethanesulfonamide] | < 100 nM |
| CN1CCN(c2cccc3nc(CN(C)[C@H]4CCCc5cccnc54)c(CNC(=O)OCc4ccccc4)n23)CC1 [Example 33, Phenylmethyl {[5-(4-methyl-1-piperazinyl)-2-({methyl[(8S)-5,6,7,8-tetrahydro-8-quinolinyl]amino}methyl)imidazor[1,2-a]pyridin-3-yl]methyl}carbamate] | < 100 nM |
| CN1CCN(c2cccc3nc(CN(C)[C@H]4CCCc5cccnc54)c(CNC(N)=O)n23)CC1 [Example 44, N-{[5-(4-Methyl-1-piperazinyl)-2-({methyl[(8S)-5,6,7,8-tetrahydro-8-quinolinyl]amino}methyl)imidazo[1,2-a]pyridin-3-yl]methyl}urea] | < 100 nM |
